Data published in paper PMC9019904, “AD Informer Set: Chemical tools to facilitate Alzheimer's disease drug discovery” (Alzheimer's & Dementia : Translational Research & Clinical …, 2022).
Converted amounts (≈) assume the structure as drawn. Like-named read-outs stand apart in the source and are kept apart here.

Key:
[1] = test system: protein product expressed by the gene target; conditions: cited from earlier work
[2] = test system: HMC3 (human microglia) cell line; experiment: pHrodo-myelin phagocytosis/cell viability high content imaging assay: viability (cell count, nuclear area, nuclear intensity)
Outline: (§1)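 Immortalized microglia are treated with compound (10 μM, single concentration) for 48 h, the final 20 h alongside pHrodo-myelin. Data are the mean of duplicates, reported as % of untreated control.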

[3] = test system: BV2 (mouse microglia) cell line; experiment: as above
Outline: as §1

[4] = test system: HMC3 (human microglia) cell line; experiment: pHrodo-myelin phagocytosis/cell viability high content imaging assay: phagocytosis signal; assay type: cell-based
Outline: (§2)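 Read by high content imaging: the phagocytosis signal plus viability, measured simultaneously, with three extracted measurements. Imaging was done roughly 22 hours after pHrodo-myelin was added.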

[5] = test system: BV2 (mouse microglia) cell line; experiment: as above; assay type: cell-based; conditions: for Stimulation of mouse microglial phagocytosis at 10 μM (>150% control): BV2, 10 μM
Outline: as §2

[6] = Kinetic solubility in aqueous buffer pH 7.4 by total chemiluminescent nitrogen determination (Analiza); conditions: aqueous buffer, pH 7.4, aqueous buffer, kinetic from dmso stock
[7] = HMC3, compound 10 uM, 48 hours treatment
[8] = BV2, compound 10 uM, 48 hours treatment

**Q.** With O=C(Cn1cc(S(=O)(=O)N2CCCC2)ccc1=O)c1ccc(-c2cccc(C(F)(F)F)c2)cc1 [UNC8367A, reference compound] as the compound, how does the “Reported on-target biochemical potency” value ([1]; gene target DOCK1, ref PubMed 28467910, 29432733) read?
**A.** The value was 8400 nM.

**Q.** What about the “1. Cell count (% control)” value [2, 7] of the same compound?
**A.** Its value is 109.8 % control.

**Q.** And the “2. Nuclear Area (% Control)” value [2, 7]?
**A.** Its value is 95.2 % Control.

**Q.** And the “3. Nuclear DNA Intensity (% control)” value [2, 7]?
**A.** The value was 108.6 % control.

**Q.** What about the “Mouse microglial cytotoxicity at 10 μM (<70% control)” value ([3]; BV2, 10 μM) of the same compound?
**A.** Its value is “Y (The compound was found to be cytotoxic (cell count threshold: <70% control) when murine immortalized microglial cells were dosed at 10 μM (Y: yes))”.

**Q.** And the “1. Cell count (% control)” value [3, 8]?
**A.** The value was 56.7 % control.

**Q.** And the “2. Nuclear Area (% Control)” value [3, 8]?
**A.** The value was 109.8 % Control.

**Q.** What about the “3. Nuclear DNA Intensity (% control)” value [3, 8] of the same compound?
**A.** The value was 118.7 % control.

**Q.** What about the “phagocytosis in human microglial cells (< 70% control inhibition, > 150% control stimulation)” value ([4]; HMC3, 10 μM, pHrodo-myelin) of the same compound?
**A.** The value was “stimulatory”.

**Q.** And the “4. Phagocytosis (% control)” value ([4]; HMC3, compound 10 uM, pHrodo-myelin)?
**A.** The value was 146.9 % control.

**Q.** What about the “Stimulation of mouse microglial phagocytosis at 10 μM (>150% control)” value [5] of the same compound?
**A.** Its value is “Y (The compound was found to stimulate phagocytosis (response threshold: >150% control) when murine immortalized microglial cells were dosed at 10 μM (Y: yes))”.

**Q.** And the “4. Phagocytosis (% control)” value ([5]; BV2, compound 10 uM, pHrodo-myelin)?
**A.** Its value is 408.0 % control.

**Q.** What about the solubility kinetic [6] of the same compound?
**A.** The solubility kinetic was 6.5 µM (≈ 3.19 µg/mL).

**Q.** What does the source list for Cc1ccc(NC(=O)c2ccc(CN3CCN(C)CC3)cc2)cc1Nc1nc(-c2cccnc2)cs1 [Masitinib (AB1010)]?
**A.** Reported on-target biochemical potency ([1]; target KIT, ref PubMed PMC2746281): 200 nM; Reported on-target biochemical potency ([1]; target LYN, ref PubMed PMC2746281): 510 nM; Reported on-target biochemical potency ([1]; target PDGFRα, ref PubMed PMC2746281): 540 nM; Reported on-target biochemical potency ([1]; target PDGFRβ, ref PubMed PMC2746281): 800 nM; Mouse microglial cytotoxicity at 10 μM (<70% control) ([3]; 10 μM, BV2): Y (The compound was found to be cytotoxic (cell count threshold: <70% control) when murine immortalized microglial cells were dosed at 10 μM (Y: yes)); Inhibition of human microglial phagocytosis at 10 μM (<70% control) ([4]; 10 μM, HMC3): Y (The compound was found to inhibit phagocytosis (response threshold: <70% control) when human immortalized microglial cells were dosed at 10 μM (Y: yes)); Inhibition of mouse microglial phagocytosis at 10 μM (<70% control) ([5]; 10 μM, BV2): Y (The compound was found to inhibit phagocytosis (response threshold: <70% control) when murine immortalized microglial cells were dosed at 10 μM (Y: yes)); solubility kinetic [6]: 93.9 µM (≈ 46.8 µg/mL)

**Q.** With Cc1ccc(F)c(NC(=O)Nc2ccc(-c3cccc4[nH]nc(N)c34)cc2)c1 [Linifanib] as the compound, how does the “Reported on-target biochemical potency” value ([1]; gene target CYP19A1, ref Probe Miner) read?
**A.** Its value is 5 nM.

**Q.** What about the “Human microglial cytotoxicity at 10 μM (<70% control)” value ([2]; HMC3, 10 μM) of the same compound?
**A.** Its value is “Y (The compound was found to be cytotoxic (cell count threshold: <70% control) when human immortalized microglial cells were dosed at 10 μM (Y: yes))”.

**Q.** What about the “Mouse microglial cytotoxicity at 10 μM (<70% control)” value ([3]; BV2, 10 μM) of the same compound?
**A.** The value was “Y (The compound was found to be cytotoxic (cell count threshold: <70% control) when murine immortalized microglial cells were dosed at 10 μM (Y: yes))”.

**Q.** And the “Inhibition of human microglial phagocytosis at 10 μM (<70% control)” value ([4]; HMC3, 10 μM)?
**A.** Its value is “Y (The compound was found to inhibit phagocytosis (response threshold: <70% control) when human immortalized microglial cells were dosed at 10 μM (Y: yes))”.

**Q.** What about the “Stimulation of mouse microglial phagocytosis at 10 μM (>150% control)” value [5] of the same compound?
**A.** The value was “Y (The compound was found to stimulate phagocytosis (response threshold: >150% control) when murine immortalized microglial cells were dosed at 10 μM (Y: yes))”.

**Q.** And the solubility kinetic [6]?
**A.** The solubility kinetic was 0.6 µM (≈ 0.225 µg/mL).

**Q.** For CN(C)c1ccc2c(c1)Sc1cc(N(C)C)ccc1N2.CS(=O)(=O)O.CS(=O)(=O)O [TRx0237 (LMTX) mesylate], which “Reported on-target biochemical potency” value ([1]; target gene MAPT, ref PubMed 26809554) is on record?
**A.** The value was 160 nM.

**Q.** What about the “Human microglial cytotoxicity at 10 μM (<70% control)” value ([2]; 10 μM, HMC3) of the same compound?
**A.** Its value is “Y (The compound was found to be cytotoxic (cell count threshold: <70% control) when human immortalized microglial cells were dosed at 10 μM (Y: yes))”.

**Q.** And the “Mouse microglial cytotoxicity at 10 μM (<70% control)” value ([3]; 10 μM, BV2)?
**A.** The value was “Y (The compound was found to be cytotoxic (cell count threshold: <70% control) when murine immortalized microglial cells were dosed at 10 μM (Y: yes))”.

**Q.** And the “Inhibition of human microglial phagocytosis at 10 μM (<70% control)” value ([4]; 10 μM, HMC3)?
**A.** Its value is “Y (The compound was found to inhibit phagocytosis (response threshold: <70% control) when human immortalized microglial cells were dosed at 10 μM (Y: yes))”.

**Q.** And the solubility kinetic [6]?
**A.** The solubility kinetic was 115 µM.
